Laboratory results from article PMC12118597 (Science Advances, 2025).
Where two headings read alike, the source gives them in different places.

What was measured:
[1] = target: T1, SARS-CoV-2 NSP3 macrodomain (Mac1) (Severe acute respiratory syndrome coronavirus 2, UniProt P0DTD1); type: binding; conditions: for Total number of conformations: ligand conformations modeled in the crystal structure; for 2*(1-BDC) (%): occupancy estimate from PanDDA
[2] = target: T1, SARS-CoV-2 NSP3 macrodomain (Mac1); assay: biochemical; type: binding
[3] = PanDDA background density correction factor
[4] = TRUE = crystal structure with ligand obtained
[5] = crystal soak 10 mM, P43 crystal form
[6] = crystal soak 10 mM, DMSO background map
[7] = refined crystallographic occupancy
[8] = site of ligand in X-ray crystal structure
[9] = HTRF binding curve, SARS-CoV-2 Mac1
[10] = SARS CoV-2 macrodomain HTRF assay, dose-response
[11] = ligand-bound crystal structure obtained (TRUE)
[12] = site occupied in X-ray crystal structure
[13] = crystal soak concentration 20 mM, DMSO background map
[14] = crystal soak concentration 20 mM, P43 crystals
[15] = soak concentration 10 mM, DMSO background map
[16] = soak concentration 10 mM, P43 crystals

SMILES: OCCC(CO)Nc1ncnc2[nH]ccc12 (stereo not shown) [AVI-3734]
- Occupancy difference (refined_occupancy - 2*(1-BDC)) [1]: 0
- 1-BDC [1, 3]: 0.25
- X-ray crystal structure [1, 4]: TRUE
- PanDDA run, overall: Hit [1, 5]: TRUE
- PanDDA run, DMSO background map: 1-BDC [1, 6]: 0.25
- PanDDA run, DMSO background map: Hit [1, 6]: TRUE
- Total number of conformations [1]: 1
- 2*(1-BDC) (%) [1]: 50%
- Refined ligand occupancy (%) [1, 7]: 50%
- Binding site [1, 8]: Adenosine
- Hill slope [2, 9]: 1.2
- Hill slope [2, 10]: 1.2

SMILES: OCC1CCC2(CCOCC2)CN1c1ncnc2[nH]ccc12 (stereo not shown) [AVI-4065]
- Hill slope [2, 9]: 1.2
- Hill slope [2, 10]: 1.2

SMILES: CC(Nc1ncnc2[nH]ccc12)C1(O)CCCCC1 (stereo not shown) [AVI-4321]
- Hill slope [2, 9]: 1.2
- Hill slope [2, 10]: 1.2

SMILES: OC1(CNc2ncnc3[nH]ccc23)CCC2(CC1)OCCO2 [AVI-4315]
- Hill slope [2, 9]: 1.2
- Hill slope [2, 10]: 1.2

SMILES: OCC1COCCN1c1ncnc2[nH]ccc12 (stereo not shown) [AVI-3717]
- Occupancy difference (refined_occupancy - 2*(1-BDC)) [1]: 0
- 1-BDC [1, 3]: 0.14
- PanDDA run, overall: Hit [1, 5]: TRUE
- PanDDA run, DMSO background map: 1-BDC [1, 6]: 0.14
- PanDDA run, DMSO background map: Hit [1, 6]: TRUE
- Total number of conformations [1]: 2
- X-ray crystal structure [1, 11]: TRUE
- 2*(1-BDC) (%) [1]: 28%
- Refined ligand occupancy (%) [1, 7]: 28%
- Binding site [1, 12]: Adenosine

SMILES: CNc1ccc(NS(=O)(=O)c2cc3cccc(C)c3s2)cn1 [AVI-345]
- 1-BDC ([1]; PanDDA background density correction, 1-BDC): 0.26
- X-ray crystal structure ([1]; TRUE = ligand-bound crystal structure obtained (PDB code given)): TRUE
- Hit (PanDDA run, DMSO background map) [1, 13]: TRUE
- Modeled (PanDDA run, DMSO background map) [1, 13]: TRUE
- 1-BDC (PanDDA run, DMSO background map) ([1]; crystal soak concentration 20 mM, DMSO background map, event 1): 0.26
- Hit (PanDDA run, overall) [1, 14]: TRUE
- Modeled (PanDDA run, overall) [1, 14]: TRUE
- Refined ligand occupancy (%) ([1]; crystallographic refinement): 52%
- 2*(1-BDC) (%) [1]: 52%
- Binding site ([1]; site of Mac1 occupied in the X-ray crystal structure (Adenosine or Distal)): Adenosine
- PanDDA run, DMSO background map: 1-BDC [1, 15]: 0.17
- PanDDA run, DMSO background map: Hit [1, 15]: TRUE
- PanDDA run, overall: Hit [1, 16]: TRUE
- PanDDA run, overall: Modeling comment [1, 16]: Duplicate, not modeled

SMILES: CC(C)(C)CC(CO)Nc1ncnc2[nH]ccc12 (stereo not shown) [AVI-3648]
- Occupancy difference (refined_occupancy - 2*(1-BDC)) [1]: 0
- 1-BDC [1, 3]: 0.13
- X-ray crystal structure [1, 4]: TRUE
- PanDDA run, overall: Hit [1, 5]: TRUE
- PanDDA run, overall: Modeled [1, 5]: TRUE
- PanDDA run, DMSO background map: 1-BDC [1, 6]: 0.13
- PanDDA run, DMSO background map: Hit [1, 6]: TRUE
- Total number of conformations [1]: 1
- 2*(1-BDC) (%) [1]: 26%
- Refined ligand occupancy (%) [1, 7]: 26%
- Binding site [1, 8]: Adenosine

SMILES: OCC(Nc1ncnc2[nH]ccc12)C1CCC1 (stereo not shown) [AVI-3638]
- Occupancy difference (refined_occupancy - 2*(1-BDC)) [1]: 0
- 1-BDC [1, 3]: 0.13
- X-ray crystal structure [1, 4]: TRUE
- PanDDA run, overall: Hit [1, 5]: TRUE
- PanDDA run, overall: Modeled [1, 5]: TRUE
- PanDDA run, DMSO background map: 1-BDC [1, 6]: 0.13
- PanDDA run, DMSO background map: Hit [1, 6]: TRUE
- Total number of conformations [1]: 1
- 2*(1-BDC) (%) [1]: 26%
- Refined ligand occupancy (%) [1, 7]: 26%
- Binding site [1, 8]: Adenosine

SMILES: CC1CCN(c2ncnc3[nH]ccc23)C1CO (stereo not shown) [AVI-3655]
- Occupancy difference (refined_occupancy - 2*(1-BDC)) [1]: 0
- 1-BDC [1, 3]: 0.21
- PanDDA run, overall: Hit [1, 5]: TRUE
- PanDDA run, overall: Modeled [1, 5]: TRUE
- PanDDA run, DMSO background map: 1-BDC [1, 6]: 0.21
- PanDDA run, DMSO background map: Hit [1, 6]: TRUE
- Total number of conformations [1]: 1
- X-ray crystal structure [1, 11]: TRUE
- 2*(1-BDC) (%) [1]: 42%
- Refined ligand occupancy (%) [1, 7]: 42%
- Binding site [1, 12]: Adenosine

SMILES: CCCC(CO)Nc1ncnc2[nH]ccc12 (stereo not shown) [AVI-3643]
- Occupancy difference (refined_occupancy - 2*(1-BDC)) [1]: 0
- 1-BDC [1, 3]: 0.16
- X-ray crystal structure [1, 4]: TRUE
- PanDDA run, overall: Hit [1, 5]: TRUE
- PanDDA run, overall: Modeled [1, 5]: TRUE
- PanDDA run, DMSO background map: 1-BDC [1, 6]: 0.16
- PanDDA run, DMSO background map: Hit [1, 6]: TRUE
- Total number of conformations [1]: 1
- 2*(1-BDC) (%) [1]: 32%
- Refined ligand occupancy (%) [1, 7]: 32%
- Binding site [1, 8]: Adenosine

SMILES: CCC(Nc1ncnc2[nH]ccc12)C(C)(C)O (stereo not shown) [AVI-3667]
- Occupancy difference (refined_occupancy - 2*(1-BDC)) [1]: 0
- 1-BDC [1, 3]: 0.14
- X-ray crystal structure [1, 4]: TRUE
- PanDDA run, overall: Hit [1, 5]: TRUE
- PanDDA run, overall: Modeled [1, 5]: TRUE
- PanDDA run, DMSO background map: 1-BDC [1, 6]: 0.14
- PanDDA run, DMSO background map: Hit [1, 6]: TRUE
- Total number of conformations [1]: 1
- 2*(1-BDC) (%) [1]: 28%
- Refined ligand occupancy (%) [1, 7]: 28%
- Binding site [1, 8]: Adenosine
